Data on one compound can be found in article PMC6627868 (Marine Drugs, 2019).

Molecules are shown by their SMILES.

For data set [1] the following is noted: simulated gastric fluid, pH 1.8.
For data set [2] the following is noted: simulated intestinal fluid, pH 6.5.
For data set [3] the following is noted: pH 6.5.

In turn, `CC[C@H](C)[C@@H]1NC(=O)[C@@H]2CCCN2C(=O)[C@H](CO)NC(=O)[C@H](CCSC)NC(=O)[C@H](C)NC(=O)[C@H](CO)NC(=O)[C@@H]2CSSC[C@H](NC(=O)CN)C(=O)N[C@@H](CSSC[C@@H](C(N)=O)NC1=O)C(=O)N[C@@H](CO)C(=O)N[C@@H](Cc1cnc[nH]1)C(=O)N1CCC[C@H]1C(=O)N[C@@H](C(C)C)C(=O)N2` [TxID, α-Conotoxin TxID] came in with a share remaining at 48 h in data set [1] of 65.2 ± 2%. This compound also had a share remaining at 0.5 h in data set [2] of 36.3 ± 2%. In addition, the “remaining amount in SIF after 2 h” value in data set [3] is given as 5.8 ± 2.0%.

The amount remaining is what is left of the initial amount, in per cent.
